From publication PMC5589090 (PLoS Medicine, 2017)
“And” between values parts separate entries of the source, which are not always exact repeats. Identical values can stand only once. “Also recorded” adds a separate entry of the source. Like-named read-outs stand apart in the source and are kept apart here. Blank lines part the entries; values can stand above or below the compound they belong to.

How the values were obtained:
[1] = 4 SCD subjects, subcutaneous or oral, 30-500 days; cited from earlier work
HbF [2] = details: same non-human primates (n = 14); cited from earlier work
[3] = THU solubility and storage stability; assay type: physicochemical; details: stored at -20°C; 1 year study and about 4 years re test
Procedure: Prior to administration, a glass bottle containing THU will be brought to room temperature, and dissolved in 2 ml water with a further dilution to a final volume of 10 ml, to create a solution with a final concentration that is determined by the amount of drug in the glass vial (THU is soluble to at least 100 mg/ml in water). Using this final concentration, a volume of solution containing the appropriate dose will be removed, diluted further with water to a total volume of 30ml and given by mouth. The time between reconstitution of drug and oral administration should not exceed 60 minutes, and remaining solution is to be discarded.

[4] = cited from earlier work
[5] = parameters: method as in ref 40,59-61,63-69 (main text); 25;37-45 (protocol); details: 25;37-45 (protocol); cited from earlier work
nucleotide pool sizes = details: cited from earlier work
[6] = in vivo; cited from earlier work
[7] = cited from earlier work; remark: listed apart in the source
[8] = parameters: method as in ref 26 (a number printed in a supplementary file, which may have a reference list of its own: not looked up in the article's list); details: cited from earlier work
mammary tumors = details: intraperitoneal 125-250 mg/kg thrice weekly for 6 months, rats surviving to 18 months; cited from earlier work
HbF [9] = details: cited from earlier work
[10] = cited from earlier work; remark: listed apart in the source

Compound: Nc1ncn([C@@H]2O[C@H](CO)[C@@H](O)[C@H]2O)c(=O)n1 [5-azacytidine]
marrow toxicity [1]: No marrow toxicity was observed | greater increases in HbF than cytarabine or hydroxyurea (HbF [2]): 2 to 20 fold

stability of bulk drug [3]: demonstrate THU stability
Compound: O=C1NC(O)CCN1[C@@H]1O[C@H](CO)[C@@H](O)[C@H]1O (stereo partly drawn) [THU, tetrahydrouridine]
solubility in water [4]: at least 100 mg/ml | toxicity / side effects in animals and humans [5]: No toxicities have been found; also recorded: have not identified any toxic side-effects; also recorded: no toxic side-effects have been identified; also recorded: benign toxicity profile; also recorded: no side effects observed; also recorded: has not caused toxicity | effect on nucleotide pool sizes (nucleotide pool sizes): no effect | share of elimination by renal excretion [6]: ~ 50%

Compound: Nc1ccn([C@@H]2O[C@H](CO)[C@@H](O)[C@@H]2O)c(=O)n1 [cytarabine]
greater exposure in mice versus monkey dose for dose [7]: more than 100 fold

Compound: Nc1ccn([C@@H]2O[C@H](CO)[C@@H](O)C2(F)F)c(=O)n1 [gemcitabine]
oral bioavailability ([8]; with THU co-administration): ~ 40% | oral bioavailability ([8]; without THU): ~ 10%

Compound: NC(=O)NO [hydroxyurea]
incidence of mammary tumors (mammary tumors): increased the incidence of mammary tumors | mean change in HbF after 2 years of treatment (HbF [9]; SCD patients with no HbF response in the pivotal trial): ~0% and 0.3% | adult SCD patients in whom HbF increased for 2 years (HbF [9]; hydroxyurea 15–35 mg/kg, pivotal trial): approximately 50% | subjects who did not respond (no elevated HbF after two years) (HbF [9]; pivotal multi-center trial): approximately 50% | Average HbF increases at 2 years (HbF [9]; pivotal trial): 3.6% | average total hemoglobin increase (HbF [9]; pivotal trial): 0.6 g/dL | genotoxicity ([10]; package insert): genotoxic in a wide range of test systems | neutrophil recovery time ([10]; pancellular hematologic toxicities, ref AHFS Drug Information, 2000): up to 2 weeks
